Measured values from patent publication US20200267980A1, “Herbicidally Active Pyridyl-/Pyrimidyl-Pyrimidine Derivatives” (Syngenta Participations AG, priority 2017, published 2020).

What was measured:
Type in all cases: in vivo
[1] = system: Alopecurus myosuroides (ALOMY); experiment: Pre-emergence herbicidal activity, glasshouse pot test; design: key: 5=total damage to plant; 0=no damage to plant; details: 1000 g/ha, pre-emergence spray, evaluated after 13 days, damage score 0-5
Protocol: (§1) Seeds of a variety of test species were sown in standard soil in pots: Triticum aestivium (TRZAW), Avena fatua (AVEFA), Alopecurus myosuroides (ALOMY), Echinochloa crus-galli (ECHCG), Lolium perenne (LOLPE), and Setaria faberi (SETFA). After cultivation for one day (pre-emergence) under controlled conditions in a glasshouse (at 24/16° C., day/night; 14 hours light; 65% humidity), the plants were sprayed with an aqueous spray solution derived from the formulation of the technical active ingredient in acetone/water (50:50) solution containing 0.5% Tween 20 (polyoxyethelyene sorbitan monolaurate, CAS RN 9005-64-5). The test plants were then grown in a glasshouse under controlled conditions (at 24/16° C., day/night; 14 hours light; 65% humidity) and watered twice daily. After 13 days, the test was evaluated (5=total damage to plant; 0=no damage to plant).

[2] = system: Triticum aestivium (TRZAW); experiment: as above; design: key: 5=total damage to plant; 0=no damage to plant; details: 1000 g/ha, pre-emergence spray, evaluated after 13 days, damage score 0-5
Protocol: as §1

[3] = system: Echinochloa crus-galli (ECHCG); experiment: as above; design: key: 5=total damage to plant; 0=no damage to plant; details: 1000 g/ha, pre-emergence spray, evaluated after 13 days, damage score 0-5
Protocol: as §1

Avena fatua (AVEFA) [4] = experiment: as above; design: key: 5=total damage to plant; 0=no damage to plant; details: 1000 g/ha, pre-emergence spray, evaluated after 13 days, damage score 0-5
Protocol: as §1

Lolium perenne (LOLPE) [5] = experiment: as above; design: key: 5=total damage to plant; 0=no damage to plant; details: 1000 g/ha, pre-emergence spray, evaluated after 13 days, damage score 0-5
Protocol: as §1

Avena fatua (AVEFA) [6] = experiment: Post-emergence herbicidal activity, glasshouse pot test; details: 1000 g/ha, post-emergence spray after 8 days cultivation, evaluated after 13 days, damage score 0-5
Protocol: (§2) Seeds of a variety of test species were sown in standard soil in pots: Triticum aestivium (TRZAW), Avena fatua (AVEFA), Alopecurus myosuroides (ALOMY), Echinochloa crus-galli (ECHCG), Lolium perenne (LOLPE), and Setaria faberi (SETFA). After 8 days cultivation (post-emergence) under controlled conditions in a glasshouse (at 24/16° C., day/night; 14 hours light; 65% humidity), the plants were sprayed with an aqueous spray solution derived from the formulation of the technical active ingredient in acetone/water (50:50) solution containing 0.5% Tween 20 (polyoxyethelyene sorbitan monolaurate, CAS RN 9005-64-5). The test plants were then grown in a glasshouse under controlled conditions (at 24/16° C., day/night; 14 hours light; 65% humidity) and watered twice daily. After 13 days, the test was evaluated (5=total damage to plant; 0=no damage to plant).

[7] = system: Alopecurus myosuroides (ALOMY); experiment: as above; design: key: 5=total damage to plant; 0=no damage to plant; details: 1000 g/ha, post-emergence spray after 8 days cultivation, evaluated after 13 days, damage score 0-5
Protocol: as §2

[8] = system: Triticum aestivium (TRZAW); experiment: as above; design: key: 5=total damage to plant; 0=no damage to plant; details: 1000 g/ha, post-emergence spray after 8 days cultivation, evaluated after 13 days, damage score 0-5
Protocol: as §2

Setaria faberi (SETFA) [9] = experiment: as above; design: key: 5=total damage to plant; 0=no damage to plant; details: 1000 g/ha, post-emergence spray after 8 days cultivation, evaluated after 13 days, damage score 0-5
Protocol: as §2

[10] = system: Echinochloa crus-galli (ECHCG); experiment: as above; design: key: 5=total damage to plant; 0=no damage to plant; details: 1000 g/ha, post-emergence spray after 8 days cultivation, evaluated after 13 days, damage score 0-5
Protocol: as §2

Lolium perenne (LOLPE) [11] = experiment: as above; design: key: 5=total damage to plant; 0=no damage to plant; details: 1000 g/ha, post-emergence spray after 8 days cultivation, evaluated after 13 days, damage score 0-5
Protocol: as §2

Setaria faberi (SETFA) [12] = experiment: Pre-emergence herbicidal activity, glasshouse pot test; design: key: 5=total damage to plant; 0=no damage to plant; details: 1000 g/ha, pre-emergence spray, evaluated after 13 days, damage score 0-5
Protocol: as §1

SMILES | Control of weed species after pre-emergence application, ALOMY [1] | Control of weed species after pre-emergence application, TRAZW [2] | Control of weed species after pre-emergence application, ECHCG [3] | Control of weed species after pre-emergence application, AVEFA (Avena fatua (AVEFA) [4]) | Control of weed species after pre-emergence application, LOLPE (Lolium perenne (LOLPE) [5]) | Control of weed species after post-emergence application, AVEFA (Avena fatua (AVEFA) [6]) | Control of weed species after post-emergence application, ALOMY [7] | Control of weed species after post-emergence application, TRAZW [8] | Control of weed species after post-emergence application, SETFA (Setaria faberi (SETFA) [9]) | Control of weed species after post-emergence application, ECHCG [10] | Control of weed species after post-emergence application, LOLPE (Lolium perenne (LOLPE) [11]) | Control of weed species after pre-emergence application, SETFA (Setaria faberi (SETFA) [12])
CC(C)C(=O)Nc1cnc(-c2cncc(F)c2)nc1C(F)(F)F [Compound F13] | 0 | 0 | 4 | 2 | 1 | 3 | 0 | 0 | 5 | 5 | 2 | 
CC(=O)Nc1cnc(-c2cncc(F)c2)nc1C(F)(F)F [Compound F11] | 0 | 0 | 4 | 2 | 1 | 3 | 1 | 1 | 5 | 4 | 2 | 
O=C(Nc1cnc(-c2cncc(F)c2)nc1C(F)(F)F)C1CC1 [Compound F14, N-[2-(5-fluoro-3-pyridyl)-4-(trifluoromethyl)-pyrimidin-5-yl]cyclopropanecarboxamide] | 0 | 0 | 4 | 2 | 2 | 3 | 0 | 1 | 5 | 5 | 4 | 
Cc1nc(-c2cncnc2)ncc1NC(=O)C(C)C [Compound F1, 2-methyl-N-(4-methyl-2-pyrimidin-5-yl-pyrimidin-5-yl)propanamide] | 0 | 0 | 3 | 2 | 0 | 3 | 0 | 0 |  | 4 | 1 | 5
CCCCC(=O)Nc1cnc(-c2cncc(F)c2)nc1C(F)(F)F [Compound F12] | 0 | 0 | 3 | 2 | 1 | 3 | 0 | 0 | 5 | 4 | 2 | 
COCCC(=O)Nc1cnc(-c2cncc(F)c2)nc1C(F)(F)F [Compound F15] | 0 | 0 | 4 | 2 | 0 | 3 | 0 | 1 | 5 | 4 | 2 | 
